Laboratory results: the supplement of paper PMC13380429

What was measured:
Settings in all cases: 72 h
Vero E6 [1] = assay: drug sensitivity score (DSS) for viability; higher = more toxic; extreme values may be limits of the assay
Calu-3 [2] = assay: as above
HepG2 [3] = assay: as above
Caco-2 [4] = assay: as above
Vero E6 [5] = assay: relative viability EC50 (midpoint between 100% and the lowest measured viability); higher = less toxic
Calu-3 [6] = assay: as above
HepG2 [7] = assay: as above
Caco-2 [8] = assay: as above
Vero E6 [9] = assay: cell viability relative to DMSO; higher = less toxic
Calu-3 [10] = assay: as above
HepG2 [11] = assay: as above
Caco-2 [12] = assay: as above
U2OS [13] = assay: drug sensitivity score (DSS) for viability; higher = more toxic; extreme values may be limits of the assay
U2OS [14] = assay: relative viability EC50 (midpoint between 100% and the lowest measured viability); higher = less toxic
U2OS [15] = assay: cell viability relative to DMSO; higher = less toxic

| SMILES | drug sensitivity score (Vero E6 [1]) | drug sensitivity score (Calu-3 [2]) | drug sensitivity score (HepG2 [3]) | drug sensitivity score (Caco-2 [4]) | relative viability EC50 (Vero E6 [5]) [µM] | relative viability EC50 (Calu-3 [6]) [µM] | relative viability EC50 (HepG2 [7]) [µM] | relative viability EC50 (Caco-2 [8]) [µM] | cell viability (Vero E6 [9]; 1 nM) [%] | cell viability (Vero E6 [9]; 10 nM) [%] | cell viability (Vero E6 [9]; 100 nM) [%] | cell viability (Vero E6 [9]; 1000 nM) [%] | cell viability (Vero E6 [9]; 10000 nM) [%] | cell viability (Calu-3 [10]; 1 nM) [%] | cell viability (Calu-3 [10]; 10 nM) [%] | cell viability (Calu-3 [10]; 100 nM) [%] | cell viability (Calu-3 [10]; 1000 nM) [%] | cell viability (Calu-3 [10]; 10000 nM) [%] | cell viability (HepG2 [11]; 1 nM) [%] | cell viability (HepG2 [11]; 10 nM) [%] | cell viability (HepG2 [11]; 100 nM) [%] | cell viability (HepG2 [11]; 1000 nM) [%] | cell viability (HepG2 [11]; 10000 nM) [%] | cell viability (Caco-2 [12]; 1 nM) [%] | cell viability (Caco-2 [12]; 10 nM) [%] | cell viability (Caco-2 [12]; 100 nM) [%] | cell viability (Caco-2 [12]; 1000 nM) [%] | cell viability (Caco-2 [12]; 10000 nM) [%] | drug sensitivity score (U2OS [13]) | relative viability EC50 (U2OS [14]) [µM] | cell viability (U2OS [15]; 1 nM) [%] | cell viability (U2OS [15]; 10 nM) [%] | cell viability (U2OS [15]; 100 nM) [%] | cell viability (U2OS [15]; 1000 nM) [%] | cell viability (U2OS [15]; 10000 nM) [%] |
| --- | --- | --- | --- | --- | --- | --- | --- | --- | --- | --- | --- | --- | --- | --- | --- | --- | --- | --- | --- | --- | --- | --- | --- | --- | --- | --- | --- | --- | --- | --- | --- | --- | --- | --- | --- |
| C[C@H](Nc1cc2c(-c3ccc4c(c3)OCO4)noc2cn1)c1ccccc1 [TC-S-7005] | 0 | 0 | 0 | 0 | > 10 | > 10 | > 10 | > 10 | 97.4 | 96.2 | 98.8 | 90.5 | 108 | 106 | 98 | 105 | 97.2 | 107 | 106 | 120 | 100 | 91.6 | 99 | 96.5 | 105 | 107 | 101 | 97.9 |  |  |  |  |  |  |  |
| C[C@@]1(CO)[C@H](O)CC[C@@]2(C)[C@H]1CC[C@H]1C[C@@H]3C[C@@]12CC[C@]3(O)CO [aphidicolin] | 5.1 | 2.1 | 10.6 | 6.8 | 2.02 | > 10 | 0.608 |  | 106 | 109 | 100 | 90.7 | 35.8 | 111 | 100 | 110 | 87.3 | 77.7 | 100 | 100 | 91.3 | 50.5 | 22.5 | 100 | 100 | 80 | 79.2 | 72 | 0.8 | > 10 | 106 | 104 | 101 | 98.7 | 79.4 |
| CC(C)(C)C(=O)C(Oc1ccc(Cl)cc1)n1ccnc1 (stereo not drawn) [climbazole] | 0 | 0 | 0 | 0 | > 10 | > 10 | > 10 | > 10 | 96.6 | 101 | 98.1 | 92.2 | 97.1 | 94.5 | 102 | 98.3 | 94.7 | 101 | 113 | 104 | 93.8 | 107 | 102 | 108 | 100 | 104 | 97 | 98.2 |  |  |  |  |  |  |  |
| O=C1CN(/N=C/c2ccc(-c3ccc([N+](=O)[O-])cc3)o2)C(=O)N1 [dantrolene] |  | 0 | 0 | 0 |  | > 10 | > 10 | > 10 |  |  |  |  |  | 102 | 95 | 106 | 102 | 112 | 102 | 101 | 95.6 | 101 | 107 | 110 | 97.1 | 91.7 | 97.8 | 89.7 | 0 | > 10 | 96.8 | 101 | 96.1 | 103 | 95.6 |
| OC(CCCN1CCCCC1)(c1ccccc1)c1ccccc1 [diphenidol] |  | 0 | 0 | 0 |  | > 10 | > 10 | > 10 |  |  |  |  |  | 120 | 104 | 97.8 | 106 | 98.6 | 96.1 | 101 | 102 | 109 | 105 | 90.3 | 93.3 | 90.5 | 102 | 87.8 | 0 | > 10 | 104 | 98.9 | 103 | 99.5 | 100 |
| CCOC(=O)c1cncn1[C@H](C)c1ccccc1 [etomidate] | 0 | 0 | 0 |  | > 10 | > 10 | > 10 |  | 102 | 96.4 | 104 | 89.1 | 106 | 94.2 | 111 | 97.1 | 102 | 100 | 95 | 86.3 | 97.3 | 100 | 91.7 |  |  |  |  |  | 0 | > 10 | 91.8 | 99.2 | 94.4 | 97.2 | 102 |
| COc1c(N2CCNC(C)C2)c(F)cc2c(=O)c(C(=O)O)cn(C3CC3)c12 (stereo not drawn) [gatifloxacin] |  | 0 | 0 | 0 |  | > 10 | > 10 | > 10 |  |  |  |  |  | 101 | 114 | 103 | 103 | 89.4 | 99.1 | 101 | 95.9 | 98.7 | 100 | 95.7 | 99.9 | 97.6 | 100 | 96.8 | 0 | > 10 | 102 | 98.5 | 94.7 | 95.2 | 93 |
| CN(C)c1ccc2c(c1)Sc1cc(N(C)C)ccc1N2 [leucomethylene-blue] | 4.9 | 4.4 | 8.7 | 5.2 | 1.55 | 3.65 | 1.53 | 2.54 | 95.8 | 97.1 | 93.9 | 85.2 | 45.9 | 101 | 102 | 102 | 109 | 9 | 93.1 | 93.2 | 93.6 | 76.4 | 7.7 | 95.2 | 99 | 102 | 94.1 | 23.1 | 2.2 |  | 99.5 | 94.1 | 97.2 | 99.6 | 56.9 |
| CN(C)C(=N)NC(=N)N [metformin] | 0 | 0 | 0 | 0 | > 10 | > 10 | > 10 | > 10 | 93.6 | 102 | 103 | 103 | 102 | 103 | 103 | 85.6 | 101 | 89.1 | 93.4 | 96.7 | 97.2 | 94.3 | 93 | 106 | 95.7 | 90.2 | 104 | 109 |  |  |  |  |  |  |  |
| CCCc1cc(C(N)=S)ccn1 [protionamide] | 0 | 0 | 0 | 5.7 | > 10 | > 10 | > 10 |  | 102 | 98.6 | 93.3 | 101 | 91.6 | 96.2 | 100 | 88.9 | 107 | 92.4 | 108 | 105 | 95.9 | 103 | 95.3 | 94.4 | 80.4 | 93.8 | 73.7 | 68.3 | 0 | > 10 | 104 | 107 | 98.6 | 96 | 96.4 |
| Nc1nc2ccc(OC(F)(F)F)cc2s1 [riluzole] | 0 | 0 | 0 | 0 | > 10 | > 10 | > 10 | > 10 | 93.4 | 98.1 | 98.7 | 99.5 | 104 | 96 | 100 | 109 | 97.5 | 103 | 97.9 | 106 | 96.6 | 94.7 | 105 | 97.4 | 90.4 | 91.7 | 103 | 96.9 |  |  |  |  |  |  |  |
| CC1(C)CN(C(=O)c2ccc(-c3cccc4nc(NC(=O)C5CC5)nn34)cc2)C1 [solcitinib] |  | 0 | 0 | 1.5 |  | > 10 | > 10 | > 10 |  |  |  |  |  | 106 | 94.5 | 102 | 101 | 92.2 | 105 | 112 | 99.6 | 98.4 | 96.6 | 99.1 | 99.8 | 92.9 | 87.3 | 81.7 | 0 | > 10 | 101 | 97.3 | 101 | 97.2 | 96.8 |
| O=C(O)COc1cccc(CN(Cc2ccc(-n3cccn3)cc2)S(=O)(=O)c2cccnc2)c1 [taprenepag] | 0 | 0 | 0 | 0 | > 10 | > 10 | > 10 | > 10 | 105 | 97.2 | 97.5 | 102 | 104 | 109 | 95.6 | 94.5 | 92.9 | 91.7 | 92.5 | 104 | 93.8 | 104 | 96.4 | 104 | 102 | 99.2 | 109 | 93.9 |  |  |  |  |  |  |  |
| CC(=O)Nc1ccc(NC(=S)NC(=O)c2ccc(C(C)(C)C)cc2)cc1 [tenovin-1] | 5.6 | 1.3 | 8.2 | 0 |  | > 10 | 0.65 | > 10 | 99.9 | 98.8 | 105 | 67.8 | 61.7 | 108 | 95.1 | 95.8 | 90.9 | 77.2 | 113 | 89.6 | 104 | 56.8 | 42.4 | 94.7 | 91.4 | 106 | 100 | 88.7 | 0 | > 10 | 95.6 | 96.8 | 96.2 | 103 | 98.3 |
| CN1c2ccccc2C(NCCCCCCC(=O)O)c2ccc(Cl)cc2S1(=O)=O (stereo not drawn) [tianeptine] | 0.3 | 0 | 0 | 0 | > 10 | > 10 | > 10 | > 10 | 104 | 102 | 101 | 94.1 | 88.1 | 100 | 103 | 92.4 | 102 | 102 | 100 | 108 | 96.2 | 108 | 98.6 | 103 | 92.7 | 107 | 94.8 | 92.8 |  |  |  |  |  |  |  |
| OC(CCN1CCCCC1)(c1ccccc1)C1CCCCC1 (stereo not drawn) [trihexyphenidyl] | 0.5 | 0.5 | 0.3 | 1.7 | > 10 | > 10 | > 10 |  | 103 | 106 | 112 | 98.9 | 83.1 | 102 | 98.9 | 96.7 | 90.7 | 85.6 | 101 | 87.7 | 100 | 93.2 | 83.4 | 101 | 100 | 95.5 | 94.6 | 74.7 | 0 | > 10 | 96.9 | 103 | 101 | 98.1 | 97.8 |
